Reference: patent US10648014B2, “Degradation resistant peptide based biosensors” (Purdue Research Foundation, priority 2014, dated 2020)
Square brackets hold non-standard residues; d marks the D form. Ends that are not written are not given here. * marks the point of attachment. Biotin = O=C1N[C@H]2[C@H](CS[C@H]2CCCCC(=O)*)N1; photo‑cleavable linker = not defined here

Experiments:
Abl kinase = test: In vitro Abl kinase assay, phosphorylation detected by mass spectrometry; format: biochemical; settings: for phosphorylation by Abl kinase: in vitro kinase assay, mass spectrometry, FIG. 2; for selectivity toward the Abl family of kinases: in vitro kinase assays Abl vs Lyn and Fyn
Protocol: (§1) In Vitro Abl Kinase Assay: The in vitro kinase assays were performed in triplicate in Dulbecco's Phosphate Buffered Saline without Calcium, Magnesium, or Phenol red in water bath maintained at 37° C. The total volume of the assay was 200 uL, and contained 1 mM ATP, 10 mM MgCl2, 5-25 uM of the biosensor, and 6 nM of Arg or Lyn Kinase final concentrations. Initiation of the assay was the addition of 1 uL of Arg Kinase to the reaction mix and heated at 37° C. Aliquots of 20 uL were collected at intervals described over a total run time of up to 60 minutes.
Referring now to FIG. 2, to evaluate the importance of the SH3 targeting sequence, we performed in vitro kinase assays comparing the peptides using the Abl kinase. Phosphorylation was detected using mass spectrometry.

Lyn kinase = Lyn kinase (Homo sapiens, UniProt P07948); test: In vitro kinase assay against Lyn kinase; format: biochemical; settings: FIG. 2
Protocol: as §1
(§2) In order to assess the selectivity of the biosensor SEQ ID NO: 47, we tested against Lyn and Fyn kinases using the in vitro kinase assay.

Fyn kinase = Fyn kinase (Homo sapiens, UniProt P06241); test: In vitro kinase assay against Fyn kinase; format: biochemical; settings: FIG. 2
Protocol: as §1, §2

K562 cells = format: cell-based, Human
Protocol: Flow Cytometry: K562 cells (about 1×10^6 cells/mL) were incubated for 30 minutes with FITC labeled biosensors at various concentrations, 1-50 μM. Cells were centrifuged at about 2500 rpm for about 5 minutes at 4° C. Media was aspirated and cells were washed 3 times with fresh media. A FC500 flow cytometer (Beckman Coulter) was used to analyze 50 μL aliquots of suspended cells.
Flow cytometry was used to verify the uptake of the biosensor SEQ ID NO:47 by K562 cells. We conjugated a FITC fluorophore to the cysteine residue of the biosensor by maleimide reaction.

Bcr-Abl kinase = molecular target: T1, Bcr-Abl kinase (Homo sapiens, UniProt P00519); test: K562 cell kinase assay, intracellular phosphorylation of biosensor; format: cell-based; settings: K562 cells, 60 minutes incubation, FIG. 6
T1 construct: endogenous in cells; host or cells: K562; the other entry of the earlier key: BCR (P11274, Breakpoint cluster region protein)

[1] = tested on: K562 chronic myelogenous leukemia (CML) cells; format: in vitro ADME, Human
Protocol: Biosensor Enrichment: K562 cells were incubated in lysis buffer for 20 minutes. Samples were spun down in 2500×g for 5 minutes at 4° C. Lysate was transferred to new Eppendorf tubes and treated with UV light (CL-1000 Ultraviolet Crosslinker (UVP, Upland, Calif., USA)) for 20 minutes to cleave the photo-cleavable linker. Photocleaved lysate samples were incubated with streptavidin coated agarose beads (Pierce) in 96 well polypropylene filter plate (PALL, Ann Arbor, Mich.) for 20 minutes at room temperature. Following incubation, the plate was spun down at 250×g for 30 seconds over a 96 well collection plate. The wells were washed 4 times with 200 uL of PBS and 2 times with MilliQ water, and spun down for 30 seconds at 250×g after each addition. Beads were resuspended in 15 μL of (75%/25%/0.1%:acetonitrile/water/TFA) elution buffer and shaken for 15 minutes at 600 rpm. Biosensor samples were spotted at 0.5 μL on a MALDI plate with 0.5 μL of matrix (10 mg/mL α-cyano-4-cinnamic acid and 10 mg/mL ammonium hydrogen phosphate, dissolved in 75%/25%/0.1% acetonitrile/water/TFA). Mass analysis was performed using an Applied Biosystems Voyager 4800 MALDI-TOF/TOF using linear positive mode.
Human K562 chronic myelogenous leukemia (CML) cells were exposed to either the control biosensor SEQ ID NO: 52 or the biosensor SEQ ID NO: 47 for 5 minutes as shown in FIGS. 8-13. […]

[2] = biosensor incubated with Abl kinase, Michaelis Menten, FIG. 3

Chain of Fyn kinase (P06241 whole entry): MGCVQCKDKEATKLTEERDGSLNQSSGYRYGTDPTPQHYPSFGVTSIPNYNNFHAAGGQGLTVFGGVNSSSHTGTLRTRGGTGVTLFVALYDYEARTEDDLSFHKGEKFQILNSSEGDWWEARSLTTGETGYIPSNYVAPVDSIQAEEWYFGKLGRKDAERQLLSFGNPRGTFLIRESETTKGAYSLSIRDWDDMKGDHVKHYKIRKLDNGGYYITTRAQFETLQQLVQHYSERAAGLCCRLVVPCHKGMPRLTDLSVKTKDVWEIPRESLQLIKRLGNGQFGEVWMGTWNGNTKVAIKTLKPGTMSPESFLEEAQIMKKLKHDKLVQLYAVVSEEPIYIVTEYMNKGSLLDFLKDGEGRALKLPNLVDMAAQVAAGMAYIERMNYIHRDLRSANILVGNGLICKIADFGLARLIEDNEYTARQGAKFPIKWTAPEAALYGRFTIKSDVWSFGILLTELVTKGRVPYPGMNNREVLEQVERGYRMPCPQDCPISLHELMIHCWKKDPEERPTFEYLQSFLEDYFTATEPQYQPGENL
Chain of Lyn kinase (P07948 whole entry): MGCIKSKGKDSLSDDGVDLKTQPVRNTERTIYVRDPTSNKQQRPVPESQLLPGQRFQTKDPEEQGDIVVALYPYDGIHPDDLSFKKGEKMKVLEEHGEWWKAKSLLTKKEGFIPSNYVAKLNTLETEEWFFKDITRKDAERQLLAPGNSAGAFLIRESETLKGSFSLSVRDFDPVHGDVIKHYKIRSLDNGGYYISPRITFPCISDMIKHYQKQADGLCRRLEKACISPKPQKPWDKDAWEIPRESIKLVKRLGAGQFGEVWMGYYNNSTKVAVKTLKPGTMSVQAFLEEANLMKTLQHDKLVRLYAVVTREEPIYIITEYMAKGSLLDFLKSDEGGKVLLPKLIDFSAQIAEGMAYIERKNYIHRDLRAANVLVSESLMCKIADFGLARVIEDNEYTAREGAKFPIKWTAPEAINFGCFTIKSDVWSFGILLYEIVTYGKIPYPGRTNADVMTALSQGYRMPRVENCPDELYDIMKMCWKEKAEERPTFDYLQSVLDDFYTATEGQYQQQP
T1 sequence (P00519 with tags, fused parts or gaps): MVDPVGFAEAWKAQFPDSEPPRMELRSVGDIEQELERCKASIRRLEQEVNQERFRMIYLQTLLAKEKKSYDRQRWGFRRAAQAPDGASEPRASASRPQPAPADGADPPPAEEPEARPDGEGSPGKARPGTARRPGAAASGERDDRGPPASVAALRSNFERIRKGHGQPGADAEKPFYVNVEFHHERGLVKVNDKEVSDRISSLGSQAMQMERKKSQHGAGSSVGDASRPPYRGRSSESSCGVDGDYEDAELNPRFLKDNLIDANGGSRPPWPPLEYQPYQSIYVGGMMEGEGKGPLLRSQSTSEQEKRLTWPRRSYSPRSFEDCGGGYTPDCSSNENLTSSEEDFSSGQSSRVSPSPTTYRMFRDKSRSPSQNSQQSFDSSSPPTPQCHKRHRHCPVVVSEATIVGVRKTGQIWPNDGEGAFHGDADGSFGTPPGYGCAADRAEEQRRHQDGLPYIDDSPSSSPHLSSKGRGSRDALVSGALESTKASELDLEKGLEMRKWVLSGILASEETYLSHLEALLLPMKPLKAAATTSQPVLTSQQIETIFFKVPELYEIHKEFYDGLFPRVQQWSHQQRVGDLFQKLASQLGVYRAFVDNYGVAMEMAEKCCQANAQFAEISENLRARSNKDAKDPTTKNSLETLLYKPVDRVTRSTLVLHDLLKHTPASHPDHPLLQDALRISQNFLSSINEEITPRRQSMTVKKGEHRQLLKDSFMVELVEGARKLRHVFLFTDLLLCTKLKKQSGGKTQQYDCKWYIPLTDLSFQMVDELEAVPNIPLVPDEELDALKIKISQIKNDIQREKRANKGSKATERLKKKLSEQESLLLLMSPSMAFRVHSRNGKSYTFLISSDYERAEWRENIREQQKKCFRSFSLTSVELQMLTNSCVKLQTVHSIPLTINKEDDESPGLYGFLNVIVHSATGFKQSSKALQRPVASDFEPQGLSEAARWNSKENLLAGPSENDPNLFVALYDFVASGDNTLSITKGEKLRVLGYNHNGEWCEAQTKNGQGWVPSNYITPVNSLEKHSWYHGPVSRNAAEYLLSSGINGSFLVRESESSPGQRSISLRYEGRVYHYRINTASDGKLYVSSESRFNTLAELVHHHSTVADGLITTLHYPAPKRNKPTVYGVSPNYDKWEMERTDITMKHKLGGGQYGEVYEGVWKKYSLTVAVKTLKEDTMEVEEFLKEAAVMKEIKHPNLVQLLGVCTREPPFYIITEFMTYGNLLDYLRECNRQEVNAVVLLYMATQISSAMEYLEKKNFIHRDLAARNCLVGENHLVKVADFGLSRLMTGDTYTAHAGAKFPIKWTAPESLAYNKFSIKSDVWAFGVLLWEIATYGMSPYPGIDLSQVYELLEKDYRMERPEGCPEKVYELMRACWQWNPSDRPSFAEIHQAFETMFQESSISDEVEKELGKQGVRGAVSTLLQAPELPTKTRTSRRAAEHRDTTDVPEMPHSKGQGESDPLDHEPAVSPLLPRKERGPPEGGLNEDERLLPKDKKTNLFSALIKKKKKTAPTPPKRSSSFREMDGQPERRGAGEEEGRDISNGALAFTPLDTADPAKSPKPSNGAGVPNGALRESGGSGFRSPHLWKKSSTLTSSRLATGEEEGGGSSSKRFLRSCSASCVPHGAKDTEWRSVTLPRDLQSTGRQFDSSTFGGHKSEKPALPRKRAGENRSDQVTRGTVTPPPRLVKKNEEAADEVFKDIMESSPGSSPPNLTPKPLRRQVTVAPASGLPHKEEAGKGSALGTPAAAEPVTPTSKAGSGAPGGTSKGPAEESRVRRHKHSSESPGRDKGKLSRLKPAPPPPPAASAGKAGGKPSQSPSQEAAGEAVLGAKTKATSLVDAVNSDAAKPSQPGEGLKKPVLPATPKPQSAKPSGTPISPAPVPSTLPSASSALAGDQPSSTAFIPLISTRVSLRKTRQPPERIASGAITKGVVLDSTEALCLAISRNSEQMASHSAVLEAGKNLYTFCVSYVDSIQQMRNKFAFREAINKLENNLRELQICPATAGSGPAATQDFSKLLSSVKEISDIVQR

Substance | Km (Abl kinase; [2]) [µM] | Vmax (Abl kinase; [2]) [pmol/mg/min] | phosphorylation by Abl kinase (Abl kinase) | selectivity toward the Abl family of kinases (Abl kinase) | phosphorylation by Lyn kinase (Lyn kinase) | selectivity for Abl over Lyn or Fyn kinases (Fyn kinase) | uptake by K562 cells (K562 cells) | intracellular phosphorylation of the biosensor (Bcr-Abl kinase) | degradation after exposure to K562 cells [1]
KbiotinkkafpaayiaeG-photo-cleavable linker-GCGAPTYSPPPPPGGrrrqrrkkr (K(Biotin)[dK][dK][dA][dF][dP][dA][dA][dY][dI][dA][dE]G[photo‑cleavable linker]GCGAPTYSPPPPPGG[dR][dR][dR][dQ][dR][dR][dK][dK][dR]; reading uncertain) [SEQ ID NO:47] | 7.5 | 849.5 | phosphorylated with reasonable efficiency | relatively selective toward the Abl family of kinases | did not phosphorylate | selective for Abl over Lyn or Fyn kinases | confirmed the uptake | observed | essentially intact
KbiotinkkafpaayiaeG-photo-cleavable linker-GCGGrrrqrrkkr (K(Biotin)[dK][dK][dA][dF][dP][dA][dA][dY][dI][dA][dE]G[photo‑cleavable linker]GCGG[dR][dR][dR][dQ][dR][dR][dK][dK][dR]; reading uncertain) [SEQ ID NO: 53] | – | – | not appreciably phosphorylated | relatively selective toward the Abl family of kinases | – | – | – | – | –
EAIYAAFAKKG-Kbiotin-photo-cleavable linker-GCGAPTYSPPPPPGGRKKRRQRRR (EAIYAAFAKKGK(Biotin)[photo‑cleavable linker]GCGAPTYSPPPPPGGRKKRRQRRR; reading uncertain) [SEQ ID NO: 52, reference compound] | – | – | – | – | – | – | – | – | almost completely degraded
